Test results as given in paper PMC9789325, “Inhibition kinetics, molecular docking, and stability studies of the effect of papain-generated peptides from palm kernel cake proteins on angiotensin-converting enzyme (ACE)” (Food Chemistry: Molecular Sciences, 2022).
“Also recorded” adds a separate entry of the source. Where two headings read alike, the source gives them in different places. Residues, ends and D or L forms follow the SMILES beside them. No end group written: not given here.

Key:
ACE [1] = settings: literature peptides, read-out: Kiu, cited from earlier work
[2] = target: T1, angiotensin-I-converting enzyme from rabbit lung (Oryctolagus cuniculus, UniProt P12822); assay: ACE inhibitory activity evaluation (HHL substrate, hippuric acid read at 410 nm); assay type: biochemical; settings: for ACE inhibitory activity (%): Table 5; for ACE-inhibitory capacity (%) With pre-incubation: with pre-incubation with ACE (3 h); for ACE-inhibitory capacity (%) Without pre-incubation: without pre-incubation with ACE
T1 construct: the angiotensin-I-converting enzyme from rabbit lung (2 units/mg protein); purchased Sigma Chemical Co. (St. Louis, MO, USA); host or cells: rabbit lung (tissue-derived)
T1 sequence (P12822 34-1310): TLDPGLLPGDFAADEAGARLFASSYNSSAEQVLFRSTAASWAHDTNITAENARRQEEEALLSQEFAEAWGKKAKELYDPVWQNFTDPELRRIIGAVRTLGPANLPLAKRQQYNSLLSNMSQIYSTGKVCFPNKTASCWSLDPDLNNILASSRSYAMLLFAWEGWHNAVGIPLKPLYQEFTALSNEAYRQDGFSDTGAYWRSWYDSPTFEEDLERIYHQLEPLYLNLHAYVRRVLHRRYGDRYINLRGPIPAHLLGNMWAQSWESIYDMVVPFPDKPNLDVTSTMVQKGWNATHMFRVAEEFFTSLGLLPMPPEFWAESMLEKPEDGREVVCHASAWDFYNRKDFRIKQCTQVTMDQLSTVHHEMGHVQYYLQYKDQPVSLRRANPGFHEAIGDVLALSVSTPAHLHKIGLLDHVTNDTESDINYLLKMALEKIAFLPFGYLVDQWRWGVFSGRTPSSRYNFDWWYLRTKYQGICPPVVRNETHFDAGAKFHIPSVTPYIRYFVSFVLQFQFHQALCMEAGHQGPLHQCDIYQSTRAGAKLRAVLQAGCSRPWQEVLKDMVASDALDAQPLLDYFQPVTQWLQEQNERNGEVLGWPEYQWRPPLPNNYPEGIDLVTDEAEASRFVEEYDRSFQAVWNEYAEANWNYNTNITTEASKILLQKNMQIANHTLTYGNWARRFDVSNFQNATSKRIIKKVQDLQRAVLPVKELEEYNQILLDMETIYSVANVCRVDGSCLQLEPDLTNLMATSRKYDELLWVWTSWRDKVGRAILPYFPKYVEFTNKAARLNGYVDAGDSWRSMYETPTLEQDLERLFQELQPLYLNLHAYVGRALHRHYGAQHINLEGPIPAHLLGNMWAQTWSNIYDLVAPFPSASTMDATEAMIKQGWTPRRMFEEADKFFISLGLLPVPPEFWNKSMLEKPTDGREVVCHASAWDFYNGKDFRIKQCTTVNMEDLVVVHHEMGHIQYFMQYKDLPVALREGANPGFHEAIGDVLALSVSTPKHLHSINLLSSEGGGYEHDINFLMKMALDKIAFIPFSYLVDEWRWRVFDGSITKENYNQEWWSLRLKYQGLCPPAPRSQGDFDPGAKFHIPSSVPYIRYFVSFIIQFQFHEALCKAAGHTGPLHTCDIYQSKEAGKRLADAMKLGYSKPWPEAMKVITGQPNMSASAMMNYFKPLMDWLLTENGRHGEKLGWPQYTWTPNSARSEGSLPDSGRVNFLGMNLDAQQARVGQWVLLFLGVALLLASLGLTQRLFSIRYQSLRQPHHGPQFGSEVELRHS
Method: ACE inhibitory potency of peptides was determined following the method described by [Forghani et al. (2016)]. […] The mixture was incubated with Hippuryl-histidyl-leucine (HHL) solution (50 μL) containing 0.1 M borate buffer pH 8.3 and 0.3 M NaCl at 37 °C for 60 min. To terminate the enzymatic reaction, 75 μL of 1 M HCl was added to the mixture. Subsequently 150 μL of pyridine were layered followed by addition of 75 μL of benzenesulfonyl chloride, and the mixture was vortexed for 1 min before being cooled on ice. The absorbance was recorded at 410 nm using a micro plate reader (Labomed, model UVD-2950, USA Power Wave X 340, Biotek Instruments. Inc.,Winooski, VT, USA). The standard curve of hippuric acid (HA) was constructed by plotting absorbance versus _mol of HA produced in 1 mL of reaction volume.

ACE [3] = target: T2, ACE (Oryctolagus cuniculus, UniProt P12822); assay: Effect of ACE on papain-generated peptides: hydrolysis of peptides by ACE followed by RP-HPLC; assay type: in vitro ADME, rabbit; settings: for degradation of the peptide by ACE (in words): after up to 3 h pre-incubation with ACE; for Peaks: number of RP-HPLC peaks; for metabolised at 1 h / metabolised at 2 h / metabolised at 3 h / metabolised at 0.5 h: rabbit, isolated ACE (angiotensin-converting enzyme) solution, read-out: Cleavage (%); for percentage of peptide cleavage by ACE: over the whole incubation period (0.5 to 3 h)
T2 construct: the angiotensin-I-converting enzyme from rabbit lung (2 units/mg protein); purchased Sigma Chemical Co. (St. Louis, MO, USA); host or cells: rabbit lung (tissue-derived)
T2 sequence (P12822 34-1310): T1 sequence (P12822 34-1310)
Method: The effect of ACE on papain-generated peptides was analyzed following the method of [Yang et al. (2003)] with some modifications. Briefly, 225 µL of the peptide solution of YGIKVGYAIP,
GGIF, GIFE at concentrations of 2, 4, and 4 mM were separately incubated with 150 µL of ACE (100 mU/mL) at 37 °C. Samples were withdrawn at incubation times of 0, 0.5, 1, 2, and 3 h and kept on ice prior to analysis by HPLC. A 20-µl sample was loaded onto a Hypersil GOLD C18 column (4.6×250 mm) attached to a Shimadzu (Kyoto, Japan) LC 20AT apparatus. The column was conditioned with eluent A (0.1 % TFA in DI) and eluted with 100 % eluent A from 0 to 10 min. The peptides were eluted with eluent B (0.1 % TFA in CH3CN) with a gradient elution of 0–100 % for 10–50 min. The absorbance was read at 215 nm.
To evaluate the possible degrading effects of ACE on the bioactive peptides generated from palm kernel cake proteins prior to examining their inhibitory activity, the peptides were preincubated with ACE in a water bath shaker at 37 °C for 0.5 h, 1 h, 2 h and 3 h, and the resulting peptides were analyzed using RP-HPLC.

ACE [4] = target: T2, ACE; assay: Kinetics study of ACE inhibition (Lineweaver-Burk / Michaelis-Menten, HHL 15 to 4000 µM); assay type: biochemical, rabbit; settings: from plot of 1/Vmax against inhibitor concentration; read-out: Kiu (enzyme-inhibitor dissociation constant)
Method: To determine the mode of enzyme inhibition, Lineweaver-Burk plots of 1/v versus 1/[S] were used. ACE inhibition was determined in the presence of five concentrations of HHL from 15 to 4000 µM and four concentrations of peptides, as shown in Table 1.
Enzyme activity was expressed as nmol hippuric acid produced per min of enzymatic reaction. Kiu was calculated from the plot of 1/Vmax against inhibitor concentration at the intercept on the inhibitor concentration axis ([Cornish-Bowden, 2013]). Vmax and Km were calculated using GRAPHPAD PRISM 5 (GraphPad, Software Inc., San Diego, CA). Michaelis-Menten and Lineweaver-Burk plots were also created using the same software.

[5] = incubation with ACE (100 mU/mL) 37 °C, 0.5 h, peptide 2 mM (YGIKVGYAIP), 4 mM (GGIF, GIFE)

| Compound | Ki (ACE [1]; ref He, Aluko & Ju (2014)) [µM] | Ki (ACE [1]; ref Girgih, He & Aluko (2014)) [µM] | IC50 [2] [µM] | ACE inhibitory activity (%) [2] [%] | ACE-inhibitory capacity (%) With pre-incubation [2] [%] | ACE-inhibitory capacity (%) Without pre-incubation [2] [%] | degradation of the peptide by ACE (in words) (ACE [3]) | Peaks (ACE [3]; incubation with ACE 37 °C, 1 h) | Cleavage (%) (ACE [3]; incubation with ACE 37 °C, 2 h) | Peaks (ACE [3]; incubation with ACE 37 °C, 2 h) | Cleavage (%) (ACE [3]; [5]) | Peaks (ACE [3]; [5]) | metabolised at 1 h (ACE [3]; incubation with ACE 37 °C, 1 h) [%] | metabolised at 2 h (ACE [3]; incubation with ACE 37 °C, 2 h) [%] | metabolised at 3 h (ACE [3]; incubation with ACE 37 °C, 3 h) [%] | metabolised at 0.5 h (ACE [3]; [5]) [%] | Ki (ACE [4]) [µM] | Peaks (ACE [3]; incubation with ACE 37 °C, 3 h) | percentage of peptide cleavage by ACE (ACE [3]) |
| --- | --- | --- | --- | --- | --- | --- | --- | --- | --- | --- | --- | --- | --- | --- | --- | --- | --- | --- | --- |
| RALP | 104 | – | – | – | – | – | – | – | – | – | – | – | – | – | – | – | – | – | – |
| WYT | – | 1830 | – | – | – | – | – | – | – | – | – | – | – | – | – | – | – | – | – |
| YGIKVGYAIP [YGIKVGYAIP] | – | – | 1 | 100 ± 3.00 | 93 ± 2.40 | 100 ± 3.00 | degraded; also recorded: not resistant to ACE | 5 | 95 | 5 | 70 | 5 | 84 ± 1.6 | 95 ± 3.2 | 98 ± 3.1 | 70 ± 2.2 | 54 | – | – |
| CC[C@H](C)[C@H](NC(=O)CNC(=O)CN)C(=O)N[C@@H](Cc1ccccc1)C(=O)O [GGIF] (H-GGIF-OH; N-terminus and C-terminus assumed) | – | – | 92 | 97 ± 2.17 | 87 ± 2.70 | 97 ± 2.18 | resistant to ACE; also recorded: resistant and were not degraded | 1 | – | 1 | – | 1 | 1 ± 0.2 | 1 ± 0.4 | 2 ± 0.6 | 1 ± 0.1 | 1270 | 1 | approximately 1.5% |
| CC[C@H](C)[C@H](NC(=O)CN)C(=O)N[C@@H](Cc1ccccc1)C(=O)N[C@@H](CCC(=O)O)C(=O)O [GIFE] (H-GIFE-OH; N-terminus and C-terminus assumed) | – | – | – | 40 ± 1.00 | 43 ± 1.80 | 40 ± 1.00 | resistant; also recorded: resistant and were not degraded | 1 | – | 1 | – | 1 | 0 | 0 | 0 | 0 | 18000 | 1 | ~0% |
| WVYY | – | 60 | – | – | – | – | – | – | – | – | – | – | – | – | – | – | – | – | – |
